A short description of data set [1]: Solubility of the compound by UV-spectrometry. In kind it is physicochemical.
Another data set concerns the target Acetylcholinesterase (Electrophorus electricus, UniProt O42275). The experiment in a line: Mixed type inhibition of electric eel AChE by reciprocal Lineweaver-Burk plot analysis.
Data set [2] is described as follows: Permeability of compound by PAMPA-BBB assay. The data set is classed as ADME. The settings on record: read-out: permeability. (In general: In PAMPA a lipid-coated filter parts donor from acceptor wells.)
Data set [3] deals with Acetylcholinesterase (Electrophorus electricus) (UniProt O42275). The experiment in a line: Inhibition of electric eel AChE at 20 uM using acetylthiocholine iodide as substrate preincubated with enzyme for 20 mins followed by substrate addition and measured after 45 mins by Ellman's method. The settings on record: time 65.0 min. In general terms: In Ellman's method for cholinesterases, released thiocholine reacts with DTNB.
Acetylcholinesterase (Electrophorus electricus), sequence (O42275 24-633 limits assumed): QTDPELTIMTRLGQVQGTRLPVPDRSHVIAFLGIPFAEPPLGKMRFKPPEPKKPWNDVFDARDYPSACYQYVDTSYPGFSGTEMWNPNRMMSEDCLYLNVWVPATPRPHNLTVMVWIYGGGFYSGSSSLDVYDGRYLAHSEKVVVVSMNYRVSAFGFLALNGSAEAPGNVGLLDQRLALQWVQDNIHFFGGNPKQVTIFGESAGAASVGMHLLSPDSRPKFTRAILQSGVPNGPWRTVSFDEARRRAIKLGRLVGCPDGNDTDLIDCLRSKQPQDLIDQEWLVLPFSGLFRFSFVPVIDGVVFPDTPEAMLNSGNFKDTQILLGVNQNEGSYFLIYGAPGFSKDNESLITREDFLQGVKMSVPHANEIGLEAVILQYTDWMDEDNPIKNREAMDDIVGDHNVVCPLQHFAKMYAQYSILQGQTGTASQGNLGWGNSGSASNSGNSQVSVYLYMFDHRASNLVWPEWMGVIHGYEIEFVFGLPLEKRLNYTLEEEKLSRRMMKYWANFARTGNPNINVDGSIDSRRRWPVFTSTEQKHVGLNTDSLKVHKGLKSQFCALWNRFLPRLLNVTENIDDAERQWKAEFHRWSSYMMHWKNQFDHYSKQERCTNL

Data set [4] is described as follows: Cytotoxicity against rat PC12 cells assessed as cell viability at 1 to 10 uM measured after 24 hrs by MTT assay relative to control. To be noted: dose 1-10 µM, read-out: Activity. The data set is classed as toxicity, cell-based, PC-12.
Data set [5] concerns PC-12. The data set is described as follows: Anti-ferroptotic activity against RSL-3 induced ferroptosis in rat PC12 cells assessed as increase in cell viability at 10 uM measured after 24 hrs by MTT assay relative to control. The data set is classed as functional. (Tetrazolium dyes change colour on reduction, which living cells bring about.)
Data set [6] deals with PC-12. The experiment in a line: Neuroprotective activity against H2O2-induced neuronal death in rat PC12 cells assessed as increase in cell viability at 10 uM measured after 24 hrs by MTT assay relative to control. The data set is classed as functional.
The nature of data set [7]: Antioxidant activity assessed as DPPH radical scavenging activity at 20 uM incubated for 30 mins under dark condition by microplate reader based assay. In kind it is functional.
The test system of data set [8] is BV-2. The experiment in a line: Antiinflammatory activity in mouse BV-2 cells assessed as increase in LPS-induced Arg1 level at 10 uM by ELISA. The data set is classed as functional, cell-based.
The subject of data set [9] is BV-2. The data set is described as follows: Antiinflammatory activity in mouse BV-2 cells assessed as reduction in LPS-induced COX-2 expression at 0.5 uM by Western blot analysis relative to control. In kind it is functional, cell-based.
In data set [10] the test system is BV-2. The data set is described as follows: Antiinflammatory activity in mouse BV-2 cells assessed as reduction in LPS-induced iNOS expression at 0.5 uM by Western blot analysis relative to control. The data set is classed as functional, cell-based.
Data set [11] deals with BV-2. The experiment in a line: Antiinflammatory activity in mouse BV-2 cells assessed as reduction in LPS-induced iNOS expression at 0.1 to 5 uM by Western blot analysis relative to control. The data set is classed as functional, cell-based. To be noted: dose 0.1-5 µM, DDE = dose-dependent effect.
For data set [12], the system named is BV-2. The data set is described as follows: Antiinflammatory activity in mouse BV-2 cells assessed as […] LPS-induced TNFalpha production at 1 to 10 uM and measured after 24 hrs by ELISA. In kind it is functional, cell-based. To be noted: dose 1-10 µM, DDE = dose-dependent effect.
The nature of data set [13]: Cytotoxicity against LPS induced mouse BV-2 cells assessed as inhibition in cell viability at 20 uM measured by MTT assay. To be noted: BV-2 cells.
A short description of data set [14]: Inhibition of LPS induced NO production in mouse BV-2 cells by Griess reagent based analysis. The data set is classed as functional, cell-based.
A short description of data set [15]: Metal chelating activity assessed as compound Zn2+ complex formation by measuring maximum absorption wavelength shift at 25 uM incubated for 30 mins by UV-visible spectrophotometry.
Data set [16] deals with BV-2. The data set is described as follows: Antiinflammatory activity in mouse BV-2 cells assessed as suppression of LPS-induced IL-1beta secretion at 10 uM and measured after 24 hrs by ELISA. In kind it is functional, cell-based.
Data set [17] relates to BV-2. The data set is described as follows: Antiinflammatory activity in mouse BV-2 cells assessed as reduction in LPS-induced COX-2 expression at 0.1 to 5 uM by Western blot analysis relative to control. In kind it is functional, cell-based. The settings on record: dose 0.1-5 µM, DDE = dose-dependent effect.
Data set [18] is described as follows: Metal chelating activity assessed as Cu2+-compound complex formation by measuring maximum absorption wavelength shift at 25 uM incubated for 30 mins by UV-Visible spectrophotometry.
Data set [19] can be described thus: Metal chelating activity assessed as Cu2+-compound complex formation at compound:Cu2+ molar ratio of 1:1 to 1:4 at 25 uM incubated for 30 mins by UV-visible spectrophotometry.
A short description of data set [20]: Metal chelating activity assessed as compound Fe2+ complex formation by measuring maximum absorption wavelength shift at 25 uM incubated for 30 mins by UV-visible spectrophotometry.
The nature of data set [21]: Metal chelating activity assessed as compound Mg2+ complex formation by measuring maximum absorption wavelength shift at 25 uM incubated for 30 mins by UV-visible spectrophotometry.
Data set [22] is described as follows: Metal chelating activity assessed as compound Ca2+ complex formation by measuring maximum absorption wavelength shift at 25 uM incubated for 30 mins by UV-visible spectrophotometry.
The target of data set [23] is Prostaglandin G/H synthase 2 (Homo sapiens) (UniProt P35354). The experiment in a line: Inhibition of human COX2 at 40 uM by microplate reader assay.
Prostaglandin G/H synthase 2 (Homo sapiens), sequence (P35354 whole entry, looked up): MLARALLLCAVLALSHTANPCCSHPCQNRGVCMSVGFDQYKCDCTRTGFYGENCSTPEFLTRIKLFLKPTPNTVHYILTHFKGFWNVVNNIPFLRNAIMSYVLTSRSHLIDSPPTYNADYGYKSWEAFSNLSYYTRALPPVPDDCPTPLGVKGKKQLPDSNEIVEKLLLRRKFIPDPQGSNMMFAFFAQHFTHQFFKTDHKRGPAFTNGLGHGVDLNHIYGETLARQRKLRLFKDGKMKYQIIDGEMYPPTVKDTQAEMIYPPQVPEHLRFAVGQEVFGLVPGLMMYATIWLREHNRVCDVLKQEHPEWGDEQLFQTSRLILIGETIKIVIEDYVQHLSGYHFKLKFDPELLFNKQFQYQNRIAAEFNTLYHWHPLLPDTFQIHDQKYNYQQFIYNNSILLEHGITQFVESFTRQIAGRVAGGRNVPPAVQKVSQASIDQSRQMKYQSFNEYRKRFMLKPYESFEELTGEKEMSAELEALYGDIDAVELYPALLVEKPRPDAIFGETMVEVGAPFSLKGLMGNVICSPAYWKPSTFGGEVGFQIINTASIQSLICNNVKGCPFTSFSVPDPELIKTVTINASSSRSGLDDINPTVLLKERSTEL

Values after ≈ are worked out from the molar mass of the structure shown. Active and inactive are the calls of the source. The calls are words filed in the database; no cut-off is given here. Where only a bound is given, the exact number is not on record here.

Acetylcholinesterase, sequence (O42275 whole entry): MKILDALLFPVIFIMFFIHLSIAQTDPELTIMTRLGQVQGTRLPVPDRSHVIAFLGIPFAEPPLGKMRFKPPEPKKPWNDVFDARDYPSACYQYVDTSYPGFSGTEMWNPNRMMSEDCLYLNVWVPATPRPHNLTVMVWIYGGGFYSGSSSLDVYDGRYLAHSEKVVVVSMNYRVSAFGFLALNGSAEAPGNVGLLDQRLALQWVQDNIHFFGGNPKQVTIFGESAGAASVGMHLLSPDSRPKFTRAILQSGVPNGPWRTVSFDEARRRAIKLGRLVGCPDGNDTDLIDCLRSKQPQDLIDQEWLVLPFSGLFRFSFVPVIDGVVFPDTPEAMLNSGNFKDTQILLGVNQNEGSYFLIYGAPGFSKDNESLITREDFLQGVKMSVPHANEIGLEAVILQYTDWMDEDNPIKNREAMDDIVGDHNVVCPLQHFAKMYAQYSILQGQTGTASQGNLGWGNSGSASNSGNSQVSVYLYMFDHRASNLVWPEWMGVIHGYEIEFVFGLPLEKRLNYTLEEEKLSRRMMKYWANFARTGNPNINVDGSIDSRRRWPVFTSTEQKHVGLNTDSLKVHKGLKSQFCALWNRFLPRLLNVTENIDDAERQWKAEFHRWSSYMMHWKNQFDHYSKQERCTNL

What is called solubility is how much of the substance goes into solution per volume. Read a high solubility as a readily soluble substance. By Ki is commonly meant a dissociation constant, usually derived from enzyme kinetics or from competition with a known ligand. A lower Ki goes with higher affinity. What is called inhibition is the drop in the measured response relative to a control, in per cent. A low value points to little suppression. Broadly, the EC50 is the concentration giving half of the maximal effect. `CC1(C)Oc2ccc(/C(Cn3ccnc3)=N/OC(=O)c3ccc4ccccc4c3)cc2O1` showed a solubility in data set [1] of 316 µg/mL (≈ 738 µM). This compound also showed a Ki at Acetylcholinesterase of 308 nM. In [2], the Papp is 10.7 ×10⁻⁶ cm/s. The inhibition in [3] is 67%; in [23], 92%. In [4], the viability at 24 h, up to 10 µM was > 95%. Moreover, the Activity in the data set on PC-12 [5] is 58%; in the data set with PC-12 [6] it was 83%; in data set [7], 25.5%; with BV-2 [11] it was “Dde”; in the data set on BV-2 [12] it was “Dde”; in the data set with BV-2 [17], “Dde”. In addition, the outcome (with BV-2 [8]; with BV-2 [9]; in the data set with BV-2 [10]; in [15]; in the data set with BV-2 [16]; in data set [18]) was Active. Further, the result in data set [19], in [20], in [21] and in data set [22] was Active. The viability at 20 µM in data set [13] was determined as 94.1%. The EC50 in data set [14] was determined as 570 nM.
Regarding `CC1(C)Oc2ccc(/C(Cn3ccnc3)=N/OC(=O)Cc3cccc4ccccc34)cc2O1`, in data set [1], the solubility stood at 509 µg/mL (≈ 1150 µM). For the same compound, in data set [2], the Papp came to 9.2 ×10⁻⁶ cm/s. In addition, the viability at 24 h, up to 10 µM in [4] was > 95%. Besides, the Activity is 59% with PC-12 [5], 84% with PC-12 [6] and “Dde” in the data set with BV-2 [12]. Also, the viability at 20 µM in data set [13] was 94.8%. The same compound had an EC50 in [14] of 1020 nM. The result in the data set on BV-2 [16] was Active.

These data come from ChEMBL document CHEMBL5154664, “Imidazolylacetophenone oxime-based multifunctional neuroprotective agents: Discovery and structure-activity relationships” (Eur J Med Chem, 2022).
